“Also recorded” adds a separate entry of the source. Each block holds one compound with its values, some of them ahead of it.
How the values were obtained:
U226 cells = test: Combination cytotoxicity assay with HYD1 in U226 cells; type: cell-based; settings: in vitro
Excerpt: FIG. 8. Table of combination index (CI) summary for combinations of HYD1 and SAHA, etoposide, arsenic, Vel, or doxorubicin in U226 cells.

[1] = system: CD34+ hematopoietic progenitor cells; test: Colony forming assay, normal CD34+ hematopoietic progenitor cells; type: cell-based; settings: HYD1 12.5 and 50 μg/ml for 2 hrs; colonies counted day 12
Description: (§1) CD34^+ hematopoietic progenitor cells were isolated from peripheral blood and treated for 2 hrs with HYD1 (12.5 and 50 μg/ml) and then plated in a methylcellulose media supplemented with growth factors supporting myeloid and erythroid colonies. Colonies were counted on day 12 post-plating. […] In addition, the inventors evaluated the toxicity of HYD1 in normal peripheral blood mononuclear cells (PBMC).

[2] = system: peripheral blood mononuclear cells (PBMC); test: Cell death in normal peripheral blood mononuclear cells; type: cell-based; settings: six hours treatment, up to doses of 50 μg/ml
Description: as §1

H929 engrafted tumor = test: SCID-hu in vivo model, H929 engrafted tumor; settings: 8 mg/kg i.p. daily for 21 days
Description: The SCID-hu model consists of implanting human fetal bone into the mammary mouse fat pad of SCID mice. The myeloma cells are subsequently injected directly into the bone and myeloma cells will engraft only in the area of the human bone. Human paraprotein can be measured in the mouse sera and levels represent a good marker for evaluating tumor burden and response to chemotherapy. Circulating kappa levels were measured on day 28 (baseline reading before peptide treatment), 35, 42 and 49 by ELISA, and tumor burden was determined by calculating the kappa levels on day X divided by the baseline kappa levels recorded on day 28 for each mouse. Shown in FIG. 2A is the antitumor response of H929 engrafted tumor when mice were given 8 mg/kg intraperitoneal (i.p.) injections daily for 21 days starting on day 28. […] Mice were humanely euthanized at […] as several control mice had tumor protruding from the bone implant. […] The inventors anticipate that because HYD1 induces cell death independent of apoptosis and blocks cell adhesion mediated drug resistance to standard therapy that the most dramatic in vivo activity will be realized when combined with standard therapy.

MM cells = test: Characterisation of HYD1-induced cell death in MM cells (apoptosis markers, autophagy, NAC protection); type: cell-based
H929-60 cells [3] = test: Cross-resistance of H929-60 cells to standard myeloma agents (annexin V FITC/PI, IC50); type: cell-based, human; settings: 24 hours; p>0.05
Description: FIG. 19. H929-60 cells are not resistant to standard myeloma therapies. H929 and H929-60 cells were treated with increasing concentrations of melphalan or Velcade for 24 hours. After 24 hours, cells were stained with annexin V FITC/P1 for 45 minutes and acquired on FACScan. IC50 values were determined by linear regressions. […] Shown in the table of FIG. 19 is the mean and standard deviations of three independent experiments.

H929-60 cells [4] = test: HS-5 stroma co-culture model of drug resistance, H929-60 cells; type: cell-based, human
Description: FIGS. 15A-15C. […] FIG. 15A: H929 and H929-60 pre-incubated with CMFDA dye were adhered to 10,000 HS-5 cells for 2 hours. After 2 hours unadherent cells were removed and the fluorescence intensity was measured on a fluorescent plate reader. FIGS. 15B and 15C: H929 and H929-60 cells were adhered to HS-5 GFP cells for 24 hours. After 24 hours samples were treated with 15 μM melphalan or 16 nM velcade for 24 hours. Cell death was analyzed using a FACScalibur with the GFP expressing HS-5 cells being excluded from the analysis. In FIGS. 15A-15C, a representative of three independent experiments was shown. (*=p<0.05, n=9 or#=p>0.05, n=9 Students t-test).
The inventors reasoned that acquisition of resistance towards HYD1, which correlated with reduced functional binding to fibronectin, VCAM-1, and HS-5 stromal cells, would likely result in a compromised CAMDR phenotype. To test this premise, the inventors utilized the HS-5 co-culture model of drug resistance. H929 and the HYD1 resistant variant H929-60 cells were treated with either melphalan or velcade in the presence or absence of HS-5/GFP bone marrow stromal cells. As shown in FIGS. 15B and 15C, the HYD1 resistant cell line was not resistant in the co-culture bone marrow stroma model to melphalan or velcade, respectively.

CD44 = test: Biotin-HYD1 pull-down assay (Mass-Spec, Western blot), CD44 in H929 membrane extract; type: binding, human; settings: NeutrAvidin beads
Description: The first lane is 30 μg of membrane extract only. CD44 was detected by western blot analysis using a pan-CD44 antibody.
Samples were spun at 15000 XG for minutes at 4 degrees and the supernatant was removed and membranes were pelleted at 100,000Xg for 15 minutes. Membrane pellets were solubilized in AP buffer containing 0.2% NP40 and protein was quantified using BCA reagents (Pierce, Rockford, Ill.). […] After one hour, the beads were washed twice in AP buffer and 50 ug of membrane extracts were added to a total volume of 500 μl and incubated with beads overnight at 4 degrees. The beads were washed five times in AP buffer containing 0.2% NP40 and samples were suspended in SDS-PAGE sample buffer and bound proteins were resolved by SDSPAGE.
NeutrAvidin beads were used to reduce non-specific binding. […] The binding experiment was repeated using 300 ug of membrane extract. […] The inventors next determined whether α4 integrin could be detected by western blot analysis. […] To determine whether CD44 was indeed a direct binding partner of CD44 the inventors used recombinant CD44 and an ELISA as a readout of binding. The recombinant CD44 protein (purchased from Abnova) corresponds to Isoform 4 on Swiss Prot. The amino acid sequence is missing 224-266 and 223 is substituted S for T relative to the longest CD44 variant referred to as epican.

recombinant CD44 = molecular target: T1, recombinant CD44 (Homo sapiens, UniProt P16070); test: Direct ELISA, recombinant CD44 binding to immobilized biotin-HYD1; settings: NeutrAvidin coated 96-well plates
T1 construct: purchased Abnova
T1 sequence (P16070 21-699 isoform P16070-4): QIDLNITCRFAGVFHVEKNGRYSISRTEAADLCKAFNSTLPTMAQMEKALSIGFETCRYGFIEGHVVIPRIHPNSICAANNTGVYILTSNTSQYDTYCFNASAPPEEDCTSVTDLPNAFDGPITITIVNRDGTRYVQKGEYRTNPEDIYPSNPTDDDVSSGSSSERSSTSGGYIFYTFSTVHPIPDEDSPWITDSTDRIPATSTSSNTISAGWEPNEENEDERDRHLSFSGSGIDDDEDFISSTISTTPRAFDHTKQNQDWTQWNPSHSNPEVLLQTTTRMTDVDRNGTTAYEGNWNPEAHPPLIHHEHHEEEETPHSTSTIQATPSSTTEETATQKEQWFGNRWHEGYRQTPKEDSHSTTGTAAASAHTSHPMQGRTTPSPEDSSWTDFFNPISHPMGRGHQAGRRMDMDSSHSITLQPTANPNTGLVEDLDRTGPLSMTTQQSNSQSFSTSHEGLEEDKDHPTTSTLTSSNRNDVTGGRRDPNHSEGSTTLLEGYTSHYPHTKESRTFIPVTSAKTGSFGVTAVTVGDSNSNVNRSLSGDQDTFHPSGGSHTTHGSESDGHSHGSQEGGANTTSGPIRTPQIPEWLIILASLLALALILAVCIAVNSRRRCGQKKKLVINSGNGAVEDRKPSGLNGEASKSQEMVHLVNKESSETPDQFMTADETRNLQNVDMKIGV
Description: The pull down assay was directly coupled with an unbiased Mass-Spec analysis to identify HYD1 binding partners. […] NeutrAvidin beads were used to reduce non-specific binding. […] The binding experiment was repeated using 300 ug of membrane extract. […] The inventors next determined whether α4 integrin could be detected by western blot analysis. […] To determine whether CD44 was indeed a direct binding partner of CD44 the inventors used recombinant CD44 and an ELISA as a readout of binding. The recombinant CD44 protein (purchased from Abnova) corresponds to Isoform 4 on Swiss Prot. The amino acid sequence is missing 224-266 and 223 is substituted S for T relative to the longest CD44 variant referred to as epican.

H929-60 cells [5] = test: FAM-HYD1 binding to cells by FACS, H929-60 cells; type: cell-based, human
Description: (§2) FIGS. 18A, 18B-1, 18B-2, and 18B-3. […] FIG. 18A: H929 and H929-60 cells (4×10^5 cells/ml) were incubated with FAM-HYD1 (6.25, 12.5 μg/ml) on ice for 15 minutes. FACS analysis was used to determine the geometric mean of fluorescence of FAM-HYD1 bound to H929 and H929-60 cells. A representative of three independent experiments is shown. A student's t-test was performed to determine significance (* denotes p<0.05). FIGS. 18B-1, 18B-2, and 18B-3: When the dose of FAM-HYD1 was increased to 12.5 μg/ml FAM-HYD1 binding to plasma membrane was detected in the resistant cell line as determine by confocal microscopy.

H929 cells = test: Confocal microscopy of FAM-HYD1 binding, H929 cells; type: cell-based, human; settings: 6.25 μg/ml FAM-HYD1, 10 minutes
Description: FIGS. 11A-11E. […] FIG. 11B: Loss of mitochondrial membrane […] was determined using DiOC6 staining following 2 hours of HYD1 treatment in H929 and H929-60 (* denotes p<0.05 n=9, Student's t-test). FIG. 11C: ATP levels were determined in the H929 and H929-60 cell lines following 6 hours of HYD1 (50 ug/ml) treatment. (* denotes p<0.05 and # denotes p>0.05, n=9, Student's t-test). FIGS. 11D and 11E: H929 cell (FIG. 11D) and H929-60 cells (FIG. 11E) were stained with Alexa Fluor 594 wheat germ agglutinin (WGA) and Hoechst 33342 for 30 minutes. 6.25 μg/ml FAM-HYD1 was added 10 minutes before images were taken. The experiment was repeated 3 independent times and shown is a representative experiment.
(§3) To assess whether (a) HYD1 bound the cell surface and (b) whether binding of HYD1 was reduced in the resistant cell line FAM-HYD1 was used to image peptide binding in the parental and resistant cell line by confocal microscopy. A 35 mm glass bottom microwell dishes (Mattek cultureware, Ashland, Mass.) were plated with 10 uL Cell-tak (BD biosciences) per manufacture's instructions. Media containing 1 uM Alexa Fluor 594 wheat germ agglutinin (WGA) (Invitrogen) and 20 uM Hoechst 33342 (Invitrogen) was placed back in the plates and the samples were incubated for 30 minutes. After 30 minutes, the cells were washed and treated with media containing 6.25 μg/ml FAM conjugated HYD1 for 10 minutes. […]

H929-60 cells [6] = test: Confocal microscopy of FAM-HYD1 binding, H929-60 cells; type: cell-based, human; settings: 12.5 μg/ml FAM-HYD1, confocal microscopy
Description: as §2, §3

[7] = molecular target: human CD44 ectodomain (human) (UniProt P16070); test: SPR; experiment 11/29
human CD44 ectodomain (human), sequence (P16070 21-649): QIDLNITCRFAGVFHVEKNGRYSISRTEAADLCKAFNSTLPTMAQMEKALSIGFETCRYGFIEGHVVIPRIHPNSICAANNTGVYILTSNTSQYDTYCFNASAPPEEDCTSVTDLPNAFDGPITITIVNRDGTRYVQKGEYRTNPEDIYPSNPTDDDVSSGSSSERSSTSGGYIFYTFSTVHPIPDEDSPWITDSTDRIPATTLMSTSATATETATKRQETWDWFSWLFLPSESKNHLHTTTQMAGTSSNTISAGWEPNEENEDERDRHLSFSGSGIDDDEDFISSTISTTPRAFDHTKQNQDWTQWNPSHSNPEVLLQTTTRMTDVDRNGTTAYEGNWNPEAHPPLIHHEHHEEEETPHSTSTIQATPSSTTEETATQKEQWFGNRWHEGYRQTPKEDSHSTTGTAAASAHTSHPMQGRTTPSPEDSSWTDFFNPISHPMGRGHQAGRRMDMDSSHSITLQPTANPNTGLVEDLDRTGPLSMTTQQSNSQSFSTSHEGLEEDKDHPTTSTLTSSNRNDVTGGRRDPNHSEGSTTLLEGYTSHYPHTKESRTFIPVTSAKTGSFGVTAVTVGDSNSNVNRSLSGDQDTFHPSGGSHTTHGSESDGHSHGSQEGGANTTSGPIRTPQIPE

[8] = molecular target: human CD44 ectodomain (human) (UniProt P16070); test: SPR; experiment 12/05
[9] = molecular target: human CD44 ectodomain (human) (UniProt P16070); test: SPR; experiment 12/09
[10] = molecular target: human CD44 ectodomain (human) (UniProt P16070); test: SPR; experiment 12/05 LF
[11] = system: epithelial prostate carcinoma cells; settings: cited from earlier work

Compound: COc1cccc2c1C(=O)c1c(O)c3c(c(O)c1C2=O)C[C@@](O)(C(=O)CO)C[C@@H]3O[C@H]1C[C@H](N)[C@H](O)[C@H](C)O1 [Doxorubicin]
synergy in combination with HYD1 (combination index) (U226 cells): greatest levels of synergy; also recorded: most synergistic

Compound: CC[C@@H](C)[C@@H](NC(=O)[C@H](N)CCCCN)C(=O)N[C@H](CCCCN)C(=O)N[C@H](CCSC)C(=O)N[C@@H](C(=O)N[C@@H](C(=O)N[C@H](CO)C(=O)N[C@H](Cc1c[nH]c2ccccc12)C(=O)N[C@H](CCCCN)C(=O)NCC(=O)O)[C@H](C)CC)C(C)C [HYD1]
colony formation of normal CD34+ cells [1]: did not inhibit colony formation; also recorded: did not inhibit differentiation or colony formation
cell death in PBMC [2]: did not induce cell death; also recorded: not sensitive
overt toxicity or weight loss (H929 engrafted tumor): no overt toxicity or weight loss

Compound: CC(=O)N[C@@H](CS)C(=O)O [N-acetyl-L-cysteine]
protection of MM cells from HYD1-induced death (MM cells): partially protects

Compound: CC(C)C[C@H](NC(=O)[C@H](Cc1ccccc1)NC(=O)c1cnccn1)B(O)O [Velcade]
IC50 values, H929-60 compared to parental H929 (cross-resistance) (H929-60 cells [3]): not resistant; also recorded: not deemed to be significant
velcade induced cell death in HS-5 co-culture, H929-60 (H929-60 cells [4]; 16 nM velcade for 24 hours): not resistant

Compound: O=C(O)CCCC[C@@H]1SC[C@@H]2NC(=O)N[C@@H]21 [biotin]
interaction with CD44 (pull-down) (CD44): not
binding of recombinant CD44 (ELISA) (recombinant CD44): relatively no binding

Compound: N[C@@H](Cc1ccc(N(CCCl)CCCl)cc1)C(=O)O [melphalan]
IC50 values, H929-60 compared to parental H929 (cross-resistance) (H929-60 cells [3]): not resistant; also recorded: not deemed to be significant
melphalan induced cell death in HS-5 co-culture, H929-60 (H929-60 cells [4]; 15 μM melphalan for 24 hours): not resistant

Compound: O=C1c2c(O)ccc(O)c2C(=O)c2c(NCCNCCO)ccc(NCCNCCO)c21 [mitoxantrone]
IC50 values, H929-60 compared to parental H929 (cross-resistance) (H929-60 cells [3]): not resistant

Compound: FAM-kikmviswkg [FAM-HYD1]
reduction in FAM-HYD1 binding relative to the parental cell line (H929-60 cells [5]; 6.25 ug/ml FAM-HYD1, FACS): 2.7 fold
FAM-HYD1 binding to the cell surface, H929-60 compared to H929 (H929-60 cells [5]; 6.25, 12.5 μg/ml, on ice 15 minutes): reduced binding; also recorded: decreased FAM-HYD1 binding
localization of FAM-HYD1, H929 (H929 cells): localizes to the plasma membrane
FAM-HYD1 binding to plasma membrane, H929-60 (H929-60 cells [6]): detected

Kd [7]: 40.2 nM
Kd [8]: 22.6 nM
Kd [9]: 40.9 nM
Kd [10]: 26.7 nM
Compound: HYD1

Compound: WIKSMKIVKG (HYD1 variant) [HYD1S, a scrambled derivative of HYD1]
inhibition of cell adhesion to extracellular matrixes (laminin 5, laminin 332, collagen, fibronectin) [11]: not to inhibit cell adhesion

Reference: patent US20140080762A1, “HYD1 PEPTIDES FOR RELAPSED CANCER” (H. LEE MOFFITT CANCER CENTER AND RESEARCH INSTITUTE, INC., priority 2011, published 2014)
